We go through five molecules from patent US11998591B2, “Method of treating diabetes type 2 by administering ultrarapid acting insulin” (MannKind Corporation, priority 2008, dated 2024).

Like-named read-outs stand apart in the source and are kept apart here.

One series has as its system patients. The following applies: gastrointestinal side-effects being a primary issue; cited from earlier work.
The conditions of series [1]: cited from earlier work.
Series [2] has as its system subjects with type 1 diabetes. In words: 52-week clinical trial: basal insulin + prandial TI Inhalation Powder vs basal insulin + SC insulin aspart. In kind it is in vivo, human. The source says: A Prospective, Multi-Center, Open-Label, Randomized, Controlled Clinical Trial Comparing the Efficacy and Safety in Subjects with Type 1 Diabetes Receiving SC Basal Insulin and Prandial Inhalation of Insulin-FDKP Versus SC Basal and Prandial Insulin Over a 52-Week Treatment Period and a 4-Week Follow-Up
This was a prospective, multi-country, multicenter, open label, randomized, controlled clinical trial comparing glycemic control in subjects with type 1 diabetes receiving basal insulin and prandial insulin-FDKP (TI) Inhalation Powder (TI Inhalation Powder group) with subjects receiving basal insulin and SC rapid-acting insulin aspart (comparator group). This study included a 52-week treatment phase and a 4-week follow-up phase. During the 4-week follow-up phase, pulmonary function and select clinical laboratory assessments were scheduled.
The study began with enrollment at Week −3. Subjects received a complete battery of safety and eligibility assessments, including HbA1c and fasting plasma glucose (FPG).
At Week −1, subjects were randomized to one of the following 2 treatments: • Basal insulin+prandial TI Inhalation Powder • Basal insulin+prandial SC rapid-acting insulin
At Week −1, subjects again completed the first three components of the Insulin Treatment Questionnaire (ITQ) for the purpose of assessing test-retest reliability only). After completing the questionnaire, subjects randomized to the TI Inhalation Powder group were trained on the MEDTONE® Inhaler using TECHNOSPHERE®/insulin (insulin-FDKP) inhalation powder; subjects in the comparator group were trained in the use of the NOVOLOG® pens; all subjects were trained in administration of LANTUS®. Additionally, all subjects were trained on a blood glucose monitoring (HBGM) meter provided at the beginning of the trial and diary and received diabetes education. Any training was repeated at Week 0, if needed.
At the beginning of the treatment phase, subjects had several titration/dose evaluation visits to adjust insulin therapy. Titration visits occurred once a week for the first 4 weeks. During Weeks 4 through 10, there were three telephone “visits” (at Week 6, Week 8, and Week 10) to titrate dose, if necessary. However, dose titration was allowed throughout the trial.
All subjects completed a 7-point blood glucose profile on any 3 days during the week immediately preceding each visit from Week 0 to Week 52. The 7 time points included samples from before breakfast and 2 hours after breakfast, before the mid-day meal and 2 hours after the mid-day meal, before the evening meal and 2 hours after the evening meal and at bedtime (7 time points a day, over 3 days). These blood glucose (BG) values were recorded in the HBGM diary that was collected at clinic visits. The diaries for Weeks 4 through 10 (during dose titration) which were discussed over the telephone were collected at the next office visits.
A meal challenge test was performed at Week 4 (during dose titration), Week 26, and Week 52. Meal challenge venous blood sampling times were: −30, 0, 30, 60, 90, 105, 120, 180, 240, 300, and 360 minutes. Blood glucose (BG) was also measured using HBGM glucose meters to aid the Investigator in treatment decisions and values were obtained at −30, 0, 60, and 120 minutes during the meal challenge.
Treatments for glycemic control used in the trial were the following: prandial insulin-FDKP (TI) inhalation powder, prandial insulin aspart, and basal insulin glargine. Subjects assigned to the TI Inhalation Powder group (TI Inhalation Powder in combination with basal insulin therapy) received sc basal insulin glargine (LANTUS®) once daily (at bedtime) and inhaled TI Inhalation Powder 3 to 4 times a day, immediately before main meals or a snack as based upon clinical need. Adjustment of the TI Inhalation Powder dose and frequency of use to greater than 3 times a day was at the discretion of the Investigator. […]

In series [3] the test system is subjects with type 2 diabetes. In kind it is in vivo, human. As for the experimental part:
Following the completion of the meal challenge, the data was analyzed as per the statistical analysis plan. […] The study was amended (A1) and included 12 subjects (10 were reenrolled from the first meal challenge), and only two treatments, which were 10 U lispro and 60 and 90 U TI. The doses were selected based on the relative bioavailability observed following the first meal challenge (OP), where under an assumption of linear kinetics, 10 U lispro and 60 U TI would result in similar exposure. The 90 U dose group was included to assess the effect of the highest dose group of TI studied in Phase 3 trials. Six of the 12 subjects received 60 U TI and the other 6 subjects received 90 U TI. All 12 subjects received 10 U lispro in a crossover fashion. Methods and results below are described in terms of the Original Protocol (OP), which includes the meal challenge in 18 subjects with three treatments (EXUBERA®, lispro and TI) and Amendment 1 (A1), which includes 12 subjects treated with only TI and lispro. […] The subjects were screened and evaluated before, during and after the experiments and their data analyzed as described below. Subjects were selected based on several key inclusion criteria, including, male and female, having ≥18 and ≤70 years of age with clinical diagnosis of type 2 diabetes mellitus for ≥12 months. The subjects selected for the study also had stable anti-diabetic regimen with insulin for the previous 3 months; HbA1c ≤8.5%; Body Mass Index (BMI) between ≤34 kg/m^2 and ≥25 kg/m^2; urine cotinine ≤100 ng/mL; […] Criteria for exclusion from the study also included unstable diabetes control and/or evidence of serious complications of diabetes (e.g., autonomic neuropathy); serum creatinine >1.8 mg/dL in female subjects and >2.0 mg/dL in male subjects. Other clinically important pulmonary disease was confirmed by documented history or pulmonary function testing. Under A1, the study was planned to be a randomized, open label, 2-way cross-over study. […] Blood glucose concentrations were measured at regular intervals from arterialized venous blood samples. […]

Series [4] concerns subjects with type 2 diabetes. In kind it is in vivo, human. The method, then:
The insulin-FDKP formulation is administered to the subjects by oral inhalation using a MEDTONE® dry powder inhaler (MannKind Corp.). Following the completion of the meal challenge, the data was analyzed as per the statistical analysis plan. […] The study was amended (A1) and included 12 subjects (10 were reenrolled from the first meal challenge), and only two treatments, which were 10 U lispro and 60 and 90 U TI. The doses were selected based on the relative bioavailability observed following the first meal challenge (OP), where under an assumption of linear kinetics, 10 U lispro and 60 U TI would result in similar exposure. The 90 U dose group was included to assess the effect of the highest dose group of TI studied in Phase 3 trials. Six of the 12 subjects received 60 U TI and the other 6 subjects received 90 U TI. All 12 subjects received 10 U lispro in a crossover fashion. Methods and results below are described in terms of the Original Protocol (OP), which includes the meal challenge in 18 subjects with three treatments (EXUBERA®, lispro and TI) and Amendment 1 (A1), which includes 12 subjects treated with only TI and lispro. […] The subjects were screened and evaluated before, during and after the experiments and their data analyzed as described below. Subjects were selected based on several key inclusion criteria, including, male and female, having ≥18 and ≤70 years of age with clinical diagnosis of type 2 diabetes mellitus for ≥12 months. The subjects selected for the study also had stable anti-diabetic regimen with insulin for the previous 3 months; HbA1c ≤8.5%; Body Mass Index (BMI) between ≤34 kg/m^2 and ≥25 kg/m^2; urine cotinine ≤100 ng/mL; […] Criteria for exclusion from the study also included unstable diabetes control and/or evidence of serious complications of diabetes (e.g., autonomic neuropathy); serum creatinine >1.8 mg/dL in female subjects and >2.0 mg/dL in male subjects. Other clinically important pulmonary disease was confirmed by documented history or pulmonary function testing. Under OP, the study was planned to be a randomized, open label, 3-way cross-over study. […] At this analysis all patients at least had completed the meal challenge visits and only those data have been used. The screening visit(s) (V1) occurred 1 to 21 days before the first treatment visit (V2) with 7 to 21 days elapsing between treatment-visits (V2, V3, and V4) for the meal challenge test. A minimum of 8 weeks elapsed between V4 and the next treatment visit, (V6). An additional safety visit (V5) was scheduled 1-3 days prior to the first of 3 glucose clamp procedures (V6). The glucose clamp procedure occurred at 3 visits, Visits V6, V7, and V8, with 7 to 21 days elapsing between the visits. […] Each treatment visit during the meal challenge had the subjects hospitalized in the clinical unit the night before initiation of treatment. […] Each subject followed the same randomization order for the glucose-clamp procedures as for the meal challenge tests. During the study, periodic blood draws for determination of pharmacokinetic and/or pharmacodynamic parameters, and safety were taken beginning at 12 hours prior to onset of the treatment regimens and meal challenge, and thereafter for a period of 8 hours. […] Meal Challenge Test: BOOST PLUS® (12 fl. oz.) consisting of 67.5 g carbohydrate, 21 g protein, 21 g fat, energy content 540 kcal was used for the meal challenge test. The BOOST PLUS® was enriched with U-^13C-glucose to determine the amount of absorbed glucose. Concurrent enriched continuous infusion of 6,6-^2H2 glucose was used to assess endogenous glucose production EGP. […] Under OP, the dose for insulin lispro was selected based on information obtained from the regulatory label. The dose selected for EXUBERA® was obtained by means of back calculation of the most commonly used dose information presented to the FDA Advisory Committee in the EXUBERA® Briefing Document. […]
The source holds these as a separate data set.

Where [5] appears, read: subjects with type 1 diabetes, prescribing information.
[6] abbreviates: 52 weeks, with basal insulin glargine.
Where [7] appears, read: OP: 45 U insulin-FDKP, 12 U SC lispro, 4 mg EXUBERA, FIG. 6.

On to `CN(C)C(=N)N=C(N)N` [metformin], for which the “Patients who cannot tolerate the drug, at least at dosages adequate for acceptable glycemic control” value with patients was “Approximately 30%”.
For “Regular human insulin: regular human insulin preparations for subcutaneous injection, considered short acting”, in series [1] (subcutaneous injection), the “Duration of significant elevation or activity (as long as)” value was 10 to 12 h, the “Time to reach maximal activity” value is 2 to 4 h and the “Time to reach maximal blood insulin concentration” value was 1 to 2 h.
Consider “insulin aspart: SC rapid-acting insulin analog (NOVOLOG®), comparator in Example 2”, for which the “Median Tmax” value in series [1] (setting [5]) was 0.667 to 0.833 h. Further, in series [2] (52-week treatment period, with basal insulin glargine), the “Mean decrease in fasting plasma glucose (FPG) from baseline” value is 23.4 (SD 103.1) mg/dL. For the same molecule, in series [2] (setting [6]), the “Mean fasting plasma glucose (FPG) at the end of the treatment period” value is on record as 161.3 (SD 68.2) mg/dL, the “Percentage of subjects whose HbA1c level decreased to ≤6.5%” value was 7.31%, the “Percentage of subjects whose HbA1c level decreased to ≤7.0%” value was 15.98% and the “Percentage of subjects whose HbA1c level decreased to ≤8.0%” value came out at 56.16%. In series [2] (Week 14, with basal insulin glargine), the HbA1c was 8.07 (SD 1.09) %. The “Average body weight gain” value in series [2] (over the 52-week treatment period) came out at 1.4 kg.
As for “insulin glulisine: rapid acting insulin analog (APIDRA®)”, the “Range of Tmax” value in series [1] (both type 1 and type 2 populations, prescribing information) is 0.667 to 2 h. Further, the “Median Tmax” value in series [1] (setting [5]) was 1 h; in series [1] (subjects with type 2 diabetes, prescribing information), 1.67 h.
As a reminder, the Tmax is the time from dosing to the highest level. In the case of “insulin lispro: rapid acting insulin analog, subcutaneously administered (HUMALOG®, Eli Lilly & Co.)”, the “Time of peak inhibition of endogenous glucose production following dosing” value in series [3] (10 U lispro SC, FIG. 10) is given as “about 100 minutes”. The “Time after dosing at which glucose disappearance rate peaked” value is “about 100 minutes” in series [3] (10 U lispro SC, FIG. 11) and “about 120 minutes” in series [4] (setting [7]). The “Median tmax of insulin concentration” value was determined as 1 h in series [3] (human, in vivo, sc) and 1.25 h in series [4] (human, in vivo, sc, 4 mg). Also, the Tmax in series [1] (prescribing information) is 0.5 to 1.5 h. Besides, the “Time of peak inhibition of endogenous glucose production after treatment” value in series [4] (OP: 45 U insulin-FDKP, 12 U SC lispro, 4 mg EXUBERA, FIG. 5) was “about 80 minutes”. Besides, the “Time post dosing at which glucose disappearance rate was substantial / departed from baseline” value in series [4] (setting [7]) was “about 30 minutes”. In series [4] (OP: 45 U insulin-FDKP, 12 U SC lispro, 4 mg EXUBERA, after the initial phase), the “Time post-treatment at which (further) glucose infusion was needed to remain above 90 mg/dL” value is approximately 3 h. The “Total insulin exposure, greater than following either 45 U insulin-FDKP (TI) or 4 mg EXUBERA” value in series [4] (in vivo) is listed as “approximately 40%”.
